These results are taken from US5888405A, “Methods for controlling biofouling using amino methyl phosphonic acids” (Buckman Laboratories International Inc., priority 1997, dated 1999).

Several values for one entry are separate records, joined by “and”; a condition that tells them apart may be missing. Equal values may be shown once. Read-outs that look alike come from different tables or passages of the source.

Format in all cases: cell-based
Test [1] has as its system Bacteria of the genera Bacillus, Flavobacterium, and Pseudomonas. In words: Quantitative method of evaluation of bacterial adhesion (crystal violet absorbance, % IBA), Example 4. The conditions noted are these: for inhibition at 100 ppm: 168 h; for Score (% IBA), inhibition of bacterial adhesion: 100 ppm. The text has this:
(§1) The following method effectively defines the ability of a chemical compound to inhibit bacterial adhesion, or attack the formation of existing attached microorganisms, on various types of surfaces. As an overview, bioreactors were constructed in which approximately 1 in.×3 in. slides (glass or stainless steel) were fixed to the edge of the bioreactor. The lower ends (approx. 2 in.) of the slides dipped into a bacterial growth medium (pH 7) within the bioreactor which contained a known concentration of the test chemical. Following inoculation with known bacterial species, the test solutions were stirred continuously for 3 days. Unless otherwise indicated in the results below, the medium within the bioreactor was turbid by the end of three days. […] A staining procedure was then used on the slides in order to determine the amount of bacteria attached to the surfaces of the slides.
(§2) The bioreactors comprised a 400 ml glass beaker over which a lid (cover from a standard 9 cm diameter glass petri dish) was placed. With the lid removed, slides of the material of choice were taped at one end with masking tape and suspended inside the bioreactor from the top edge of the beaker. This allows the slides to be submerged within the test medium. Typically, four slides (replicates) were uniformly spaced around the bioreactor. The score presented below are the average of the four replicates. A magnetic stirring bar was placed in the bottom of the unit, the lid positioned, and the bioreactor autoclaved. Two different types of material were used as slides, stainless steel as a metal and glass as a hydrophilic surface.
(§3) The liquid medium utilized in the bioreactors was described previously by Delaquis, et al., "Detachment Of Pseudomonas fluorescens From Biofilms On Glass Surfaces In Response To Nutrient Stress", Microbial Ecology 18:199-210, 1989. The composition of the medium was:
(§4) The medium was autoclaved and then allowed to cool. If a sediment formed in the autoclaved medium, the medium was resuspended by shaking before use.
(§5) Bacteria of the genera Bacillus, Flavobacterium, and Pseudomonas were isolated from a paper mill slime deposit and maintained in continuous culture. The test organisms were separately streaked onto plate count agar and incubated at 30° C. 24 hours. With a sterile cotton swab, portions of the colonies were removed and suspended in sterile water. The suspensions were mixed very well and were adjusted to an optical density of 0.858 (Bacillus), 0.625 (Flavobacterium), and 0.775 (Pseudomonas) at 686 nm.
(§6) Biofilm Production/Chemical Testing: To four separate bioreactors was added 200 ml of the sterile medium prepared above. Chemicals to be evaluated as biodispersants were first prepared as a stock solution (40 mg/2 ml) using either water or a 9:1 acetone:methanol mixture (ac/MeOH) as a solvent. A 1.0 ml aliquot of the stock solution was added to the bioreactor using moderate, continuous magnetic stirring. This provided an initial concentration of 100 ppm for the test compound. One bioreactor (Control) contains no test compound. Aliquots (0.5 ml) from each of the three bacterial suspensions were then introduced into each bioreactor. The bioreactors were then provided with continuous stirring for three days to allow for an increase in bacterial population and deposition of cells onto the surfaces of the slides.
The test method, construction of bioreactors, bacterial growth medium, preparation of bacterial inocula, and biofilm/chemical testing are the same as those in EXAMPLE 3.
After 48 h or 168 h (1 week) of incubation at 26°-28° C. the slides were removed from the bioreactors and were positioned vertically to […] using a staining procedure. The slides were briefly flamed in order to fix the cells to the surface, and then transferred for one minute to a container of Gram Crystal Violet (DIFCO Laboratories, Detroit, Mich.). […]

Test [2] has the same test system. In words: Bacterial adhesion to submerged slides in bioreactor, Gram Crystal Violet staining, visual biofilm score (Example 3). As to conditions: 100 ppm, acetone, 3 days, pH 7, average of four replicates, control 3-4. Also on record: scale not given here.
Source text: as §1, §2, §3, §4, §5, §6
After the test was completed, the slides were removed from the bioreactors and were positioned vertically to permit air drying. The degree of adhesion of bacteria to the test surface was then estimated using a staining procedure. The slides were briefly flamed in order to fix the cells to the surface, and then transferred for two minutes to a container of Gram Crystal Violet (DIFCO Laboratories, Detroit, Mich.). The slides were gently rinsed under running tap water, and then carefully blotted. The degree of bacterial adhesion was then determined by visual examination and subjective scoring of each slide. […]

Another test concerns E. Aerogenes. In words: Minimum inhibitory concentration, 18 hour Basal Salts test. As to conditions: for MIC: Klebsiella aerogenes, 18 h. The protocol:
^1 Minimum inhibitory concentration (MIC) for each compound against
the bacteria E. Aerogenes using an 18 hour Basal Salts test at pH 6 and p

[3] abbreviates: glass slides, acetone, 168 h incubation at 26-28° C., 50% or greater considered effective.
Where [4] appears, read: stainless steel (SS) slides, acetone, 168 h incubation at 26-28° C., 50% or greater considered effective.

Take `O=P(O)(O)CN1CCOCC1` [e]: the inhibition at 100 ppm in test [1] (read-out: Score (% IBA), inhibition of bacterial adhesion, glass slides, acetone, 168 h incubation at 26-28° C., 50% or greater considered effective) came to 52%; in test [1] (read-out: Score (% IBA), inhibition of bacterial adhesion, stainless steel (SS) slides, acetone, 168 h incubation at 26-28° C., 50% or greater considered effective), 33%. In addition, the “Score (biofilm score, bacterial adhesion)” value in test [2] (glass slides) is 3; in test [2] (stainless steel (SS) slides) it was 3 and 2.3. For the same compound, the MIC in the test on E. Aerogenes (pH 8, read-out: Minimum inhibitory concentration (MIC), pH 8) was > 500 µg/mL.

With `CCCCCCCCN(CCCCCCCC)CP(=O)(O)O` [g, dioctyl amino methyl phosphonic acid], the inhibition at 100 ppm is 78% in test [1] (glass slides, acetone, 168 h incubation at 26-28° C., 50% or greater considered effective, read-out: Score (% IBA), inhibition of bacterial adhesion) and 67% in test [1] (stainless steel (SS) slides, acetone, 168 h incubation at 26-28° C., 50% or greater considered effective, read-out: Score (% IBA), inhibition of bacterial adhesion). In test [2] (glass slides), the “Score (biofilm score, bacterial adhesion)” value is 2.0. Further, the MIC in the test with E. Aerogenes (pH 6, pH 6, read-out: Minimum inhibitory concentration (MIC)) was > 100 µg/mL.

On to butyl amino methyl phosphonic acid, for which the “Score (% IBA), inhibition of bacterial adhesion” value (“Score (% IBA), inhibition” for short) came to 21 % IBA in test [1] (setting [3]) and 36 % IBA in test [1] (setting [4]). Also, the “Minimum inhibitory concentration (MIC)” value with E. Aerogenes (pH 8) was > 500.

Consider decyl amino methyl phosphonic acid, for which the “Score (% IBA), inhibition” value in test [1] (setting [3]) was found to be 5 % IBA; in test [1] (setting [4]), 62 % IBA. Moreover, the “Score (biofilm score, bacterial adhesion)” value in test [2] (glass slides) is 2.25; in test [2] (stainless steel (SS) slides), 1.25 and 2.3. In addition, the figures for the “Minimum inhibitory concentration (MIC)” value in the test on E. Aerogenes (pH 6) and in the test with E. Aerogenes (pH 8) were > 100 and > 500, respectively.

On to dodecyl amino methyl phosphonic acid, for which the “Score (% IBA), inhibition” value in test [1] (setting [3]) was found to be 43 % IBA; in test [1] (setting [4]), 54 % IBA. In addition, in test [2] (stainless steel (SS) slides), the “Score (biofilm score, bacterial adhesion)” value is 3 and 4. In addition, the entries for the “Minimum inhibitory concentration (MIC)” value with E. Aerogenes (pH 6) and with E. Aerogenes (pH 8) were > 100 and > 500, respectively.

As to hexyl amino methyl phosphonic acid, the “Score (% IBA), inhibition” value was 36 % IBA in test [1] (setting [3]) and 42 % IBA in test [1] (setting [4]). Moreover, the “Score (biofilm score, bacterial adhesion)” value in test [2] (glass slides) is 3.0; in test [2] (stainless steel (SS) slides) it was 1.0 and 2.0. In addition, the “Minimum inhibitory concentration (MIC)” value is given as > 100 with E. Aerogenes (pH 6) and > 500 in the test with E. Aerogenes (pH 8).

Take “octadecyl amino methyl phosphonic acid [f]”: the figures for the “Score (% IBA), inhibition” value in test [1] (setting [3]) and in test [1] (setting [4]) were 81 % IBA and 39 % IBA, respectively. For the same compound, the “Score (biofilm score, bacterial adhesion)” value in test [2] (stainless steel (SS) slides) was 2.25 and 2.70. Besides, the “Minimum inhibitory concentration (MIC)” value in the test with E. Aerogenes (pH 6) is > 100; in the test on E. Aerogenes (pH 8), > 500.
